Reference: US12595231B2 (priority 2022, dated 2026)
Where two headings read alike, the source gives them in different places.

How the values were obtained:
[1] = primary salt formation assessment: storage at 40° C./75% RH for ca. 24 h, XRPD; type: physicochemical; details: solids stored at 40° C./75% RH for ca. 24 h
Description: Solids were dried at 40° C. under vacuum for ca. 24 h, and then re-analysed by XRPD.
Solids were then stored at 40° C./75% RH for ca. 24 h, and then re-analysed by XRPD.

[2] = primary salt formation assessment: solution degradation (HPLC of mother liquor); type: physicochemical; details: salt formation experiment
Description: HPLC analysis was carried out to determine the chemical purity of the mesembrine and to provide information on any impurities. The following conditions were use: • Column: Waters Acquity BEH 018 1.7 μm 150 mm×2.1 mm • Column Temperature: 33° C. • Autosampler Temperature: 25° C. • UV Wavelength: 280 nm • Injection Volume: 5 μL • Flow Rate: 0.29 mL/min • Mobile Phase A: 0.1% NH4 in H2O • Mobile Phase B: Methanol:Water 20:80% v/v • Gradient Program: […]
The experiments were then temperature cycled between the upper temperature limit (specified in Table 3.1) and 5° C. at 0.1° C./min, with 1 h holds at the upper temperature limit, and 5° C. for ca. 72 h.
After temperature cycling, solids were isolated from experiments at 5° C., and analysed by XRPD.

[3] = DVS analysis (water uptake); type: physicochemical; details: for hygroscopicity: from DVS water uptake at 80% RH
[4] = VH-XRPD analysis (variable humidity); type: physicochemical
[5] = salt hydration study in methanol/water of known water activity; type: physicochemical; details: 25° C.; for Observation: 24 h; for Solubility: methanol/water, all levels of water activity (aw 0.2, 0.5, 0.8)
Description: Approximately 20 mg of the hydrochloride (HCl), besylate and fumarate salts were weighed into 3×2 mL push cap vials. 0.05-0.1 mL of relevant solvent system was added to each vial, at 25° C.
Methanol/water solvent systems (99:1, 75:25, 33:67) of known water activity (aw 0.2, 0.5 and 0.8 respectively) were used. The experiment was stirred for ca. 24 h. After 24 h, any slurries were centrifuged, and the solids analysed by XRPD.
An additional hydration study was required in order to repeat the salt hydration studies, for the HCl salt and the besylate salt due to dissolution in the first set of experiments:
For each salt, approximately 10 mg was weighed into 4×2 mL vials and a stirrer bar added. 10 μL of each solvent system was added, at 25° C. The experiments were stirred for 24 h, and any solids recovered were then analysed by XRPD.

[6] = type: physicochemical; details: for HPLC Conc.: 25° C., 24 h, with respect to mesembrine; for HPLC Purity: solution/mother liquor
Description: Approximately 20 mg of each salt was weighed into 3×2 mL push cap vials. 0.1 mL of buffer (Chloride pH 1.2; Acetate pH 4.5; Phosphate pH 6.8) was added to each vial, at 25° C. The experiment was stirred for ca. 24 h. After 2 h, the pH was measured and adjusted if required. After 24 h a final pH measurement was taken. Any slurries were centrifuged and the solids analysed by XRPD.

[7] = 1-week stability study; type: physicochemical; details: for Observation: Sigma Aldrich colour chart
Description: A 1-week stability study was performed for hydrochloride salt Pattern 1, besylate salt Pattern 1, fumarate salt Pattern 1+4, and fumarate salt Pattern 4.
Approximately 5 mg of the salt was weighed into 3×2 mL push cap vials. The 2 mL vials were then each placed inside a 20 mL vial, with the lids on or off as required. The solids were placed under the required stability conditions for 1 week at the following three conditions: 40° C./75% RH (open); 80° C. (closed); Ambient light, temperature and humidity (open)
After 1-week, visual observations were noted, then the solids were analysed by XRPD and HPLC.

[8] = HCl salt, background statement; cited from earlier work
[9] = biological target: 5-HT transporter (Homo sapiens, UniProt P31645); details: Harvey et al., 2011; cited from earlier work
[10] = biological target: PDE4B (Homo sapiens, UniProt Q07343); details: Harvey et al., 2011; cited from earlier work
[11] = 200 mg/mL, water activity aw 0.2 (methanol/water 99:1)
[12] = 400 mg/mL, water activity aw 0.5 (methanol/water 75:25)
[13] = 1000 mg/mL, water activity aw 0.2 (methanol/water 99:1)
[14] = 1000 mg/mL, water activity aw 0.5 (methanol/water 75:25)
[15] = 1000 mg/mL, water activity aw 0.8 (methanol/water 33:67)
[16] = Target pH 1.2 (chloride buffer)
[17] = Target pH 1.2, ca. 20 mg in 0.1 mL buffer
[18] = Target pH 4.5, ca. 20 mg in 0.1 mL buffer
[19] = Target pH 6.8 (phosphate buffer)
[20] = Target pH 6.8, ca. 20 mg in 0.1 mL buffer
[21] = Ambient light, temperature and humidity, 1 week
[22] = 200 mg/mL, water activity aw 0.8 (methanol/water 33:67)

Sequence of PDE4B (Q07343 whole entry, species assumed): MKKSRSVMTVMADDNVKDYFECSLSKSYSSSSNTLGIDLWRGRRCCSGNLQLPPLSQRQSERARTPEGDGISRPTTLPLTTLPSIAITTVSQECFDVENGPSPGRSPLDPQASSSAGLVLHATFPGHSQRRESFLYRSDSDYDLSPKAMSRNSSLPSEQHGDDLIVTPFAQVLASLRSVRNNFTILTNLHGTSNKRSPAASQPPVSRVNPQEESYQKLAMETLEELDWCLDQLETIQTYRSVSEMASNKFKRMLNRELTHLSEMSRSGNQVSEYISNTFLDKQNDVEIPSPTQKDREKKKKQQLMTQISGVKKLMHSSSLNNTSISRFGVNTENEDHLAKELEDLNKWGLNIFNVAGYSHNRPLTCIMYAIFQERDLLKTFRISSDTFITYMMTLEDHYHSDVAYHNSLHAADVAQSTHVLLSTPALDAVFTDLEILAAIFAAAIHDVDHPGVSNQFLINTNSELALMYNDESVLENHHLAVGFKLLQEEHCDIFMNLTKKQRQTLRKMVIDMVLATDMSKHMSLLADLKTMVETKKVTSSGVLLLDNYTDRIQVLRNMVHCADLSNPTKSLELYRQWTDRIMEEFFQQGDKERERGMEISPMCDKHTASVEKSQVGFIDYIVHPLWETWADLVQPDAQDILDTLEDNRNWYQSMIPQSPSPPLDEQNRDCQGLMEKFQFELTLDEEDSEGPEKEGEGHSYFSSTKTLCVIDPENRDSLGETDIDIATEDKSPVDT
Sequence of 5-HT transporter (P31645 whole entry, species assumed): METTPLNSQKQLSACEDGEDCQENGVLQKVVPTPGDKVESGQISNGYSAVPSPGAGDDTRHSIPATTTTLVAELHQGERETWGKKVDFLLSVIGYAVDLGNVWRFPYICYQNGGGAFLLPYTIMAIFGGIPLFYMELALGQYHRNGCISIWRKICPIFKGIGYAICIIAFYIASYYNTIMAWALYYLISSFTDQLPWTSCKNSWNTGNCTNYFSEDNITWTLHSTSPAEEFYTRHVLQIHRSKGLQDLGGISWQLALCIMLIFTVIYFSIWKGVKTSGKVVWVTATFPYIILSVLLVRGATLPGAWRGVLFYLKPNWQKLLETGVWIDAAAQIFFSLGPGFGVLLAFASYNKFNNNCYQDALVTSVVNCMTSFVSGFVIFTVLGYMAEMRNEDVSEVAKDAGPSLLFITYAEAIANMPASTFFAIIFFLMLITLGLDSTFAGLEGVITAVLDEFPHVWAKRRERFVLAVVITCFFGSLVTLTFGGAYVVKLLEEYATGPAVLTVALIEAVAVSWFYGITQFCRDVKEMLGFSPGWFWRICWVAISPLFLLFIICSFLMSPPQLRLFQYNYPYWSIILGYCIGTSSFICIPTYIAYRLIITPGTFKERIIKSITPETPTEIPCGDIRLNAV

SMILES | DVS water uptake ([3]; 80% RH, 25° C.) | hygroscopicity ([3]; 25° C.) | HPLC Conc. [6, 16] | Observation [6, 17] | HPLC Conc. ([6]; Target pH 4.5 (acetate buffer)) | Observation [6, 18] | HPLC Conc. [6, 19] | Observation [6, 20] | HPLC Purity ([6]; Target pH 1.2, 24 h) | HPLC Purity ([6]; Target pH 4.5, 24 h) | HPLC Purity ([6]; Target pH 6.8, 24 h) | HPLC ([7]; 40° C./75% RH (open), 1 week) | XRPD (pattern number) ([7]; 40° C./75% RH (open), 1 week) | Observation ([7]; 40° C./75% RH (open), 1 week) | HPLC ([7]; 80° C. (closed), 1 week) | XRPD (pattern number) ([7]; 80° C. (closed), 1 week) | Observation ([7]; 80° C. (closed), 1 week) | HPLC [7, 21] | XRPD (pattern number) [7, 21] | Observation [7, 21] | also measured
COc1ccc(C23CCC(=O)CC2N(C)CC3)cc1OC.O=S(=O)(O)c1ccccc1 (stereo not drawn) [Besylate Pattern 1, mesembrine besylate] | 2.3 wt % | hygroscopic | >172 mg/mL | Clear solution | >140 mg/mL | Clear solution | >97 mg/mL | Clear solution | 98.01 % area | 98.02 % area | 97.62 % area | 98.0 % area | 1, | Light brown solids (BR8) | 96.7 % area | 1, | Faint beige solids (BE10) | 98.1 % area | 1, | Faint beige solids (BE10) | physical stability at 40° C./75% RH (Comments) [1]: physically stable; solution degradation (Comments) [2]: degradation; DVS water uptake ([3]; 90% RH): 13 wt %; solid form by VH-XRPD ([4]; after 17 h at 90% RH): persisted; Observation [5, 11]: Clear solution; Observation [5, 12]: Clear solution; Observation ([5]; 400 mg/mL, water activity aw 0.8 (methanol/water 33:67)): Clear solution; Observation [5, 13]: Clear solution; Observation [5, 14]: Clear solution; Observation [5, 15]: Clear solution; Solubility ([5]; listed as besylate salt): greater than 1000 mg/mL; Solubility ([5]; listed as besylate salt Pattern 1): > 1000 mg/mL; HPLC ([7]; Input): 98.1 % area; XRPD (pattern number) ([7]; Input): 1,; Observation ([7]; Input): Faint beige solids (BE10)
COc1ccc(C23CCC(=O)CC2N(C)CC3)cc1OC.O=C(O)C=CC(=O)O (stereo not drawn) [Fumarate Pattern 1 + 4, mesembrine fumarate] | 0.7 wt % | slightly hygroscopic | 29.44 mg/mL | Slurry | >24 mg/mL | Clear solution | 18.98 mg/mL | Oil | 96.31 % area | 96.07 % area | 96.78 % area | 95.6 % area | 1/4, | Faint beige solids (BE10 | 83.4 % area | 6, | Light brown solids (BR8) | 96.1 % area | 1/4, | Faint beige solids (BE10 | DVS water uptake ([3]; between 0-20% RH): 2.1 wt %; solid form by VH-XRPD ([4]; at 0% RH): fumarate Pattern 5; Observation [5, 22]: Thick slurry; Observation ([5]; 400 mg/mL, water activity aw 0.2 (methanol/water 99:1)): Thick slurry; Observation [5, 12]: Slurry; HPLC ([7]; Input): 96.6 % area; XRPD (pattern number) ([7]; Input): 1/4,; Observation ([7]; Input): Faint beige solids (BE10)
COc1ccc(C23CCC(=O)CC2N(C)CC3)cc1OC.Cl (stereo not drawn) [Hydrochloride Pattern 1, reference compound] | 5.4 wt % | hygroscopic | >105 mg/mL | Clear solution | >146 mg/mL | Clear solution | >122 mg/mL | Clear solution | 97.09 % area | 93.45 % area | 92.87 % area | 93.4 % area | 1, | Light brown solids (BR8) | 92.8 % area | 1, | Light brown solids (BR8) | 91.5 % area | 1, | Faint beige solids (BE10) | physical stability at 40° C./75% RH (Comments) [1]: physically stable; solution degradation (Comments) [2]: degradation; DVS water uptake ([3]; 90% RH): 20.3 wt %; solid form by VH-XRPD ([4]; after 12 h at 90% RH): remained consistent with hydrochloride salt Pattern 1; Observation [5, 11]: Clear solution; Observation ([5]; 200 mg/mL, water activity aw 0.5 (methanol/water 75:25)): Clear solution; Observation [5, 22]: Clear solution; Observation [5, 13]: Clear solution; Observation [5, 14]: Slurry; Observation [5, 15]: Slurry; HPLC ([7]; Input): 90.5 % area; XRPD (pattern number) ([7]; Input): 1,; Observation ([7]; Input): Faint beige solids (BE10); Solubility [8]: poorly soluble at higher concentrations
COc1ccc(C23C=CC(O)CC2N(C)CC3)cc1OC (stereo not drawn) [mesembrenol] | – | – | – | – | – | – | – | – | – | – | – | – | – | – | – | – | – | – | – | – | activity in a 5-HT transporter binding assay [9]: potently active; activity against PDE4B activity [10]: potently active
